The values below are quoted from earlier work in patent US20100086647A1, “FEED OR FOOD PRODUCTS COMPRISING FUNGAL MATERIAL” (MEDIMUSH AS, priority 2005, published 2010).

The subject of one series is C. jejuni. The conditions noted are these: postulated.
Another series concerns S. pyogenes. The settings on record: in vitro.
A further series concerns E. coli. The conditions noted are these: postulated.
Another series relates to S. staphylococcus. The settings on record: in vitro.
The next series deals with B. megaterium. The settings on record: in vitro.

In the case of `C1SSCSSS1` [Lenthionine], the effect on microorganism entry in the series with C. jejuni and in the series with E. coli was “no effect” throughout. The antibacterial effect entry in the series with S. pyogenes, in the series on S. staphylococcus and with B. megaterium was “antibacterial” each time.

Regarding Lentinan, the “expression of cytochrome P450s (CYPs)” value in the series on cytochrome P450s (CYPs) is on record as “can suppress the expression”.
